In PMC8146883, “A New Thermophilic Ene-Reductase from the Filamentous Anoxygenic Phototrophic Bacterium Chloroflexus aggregans” (Microorganisms, 2021):

Target: T1, CaOYE (Chloroflexus aggregans, UniProt B8G5D6)
T1 construct: gene Cagg_2779; full-length ORF in pET-28a(+) (NdeI/BamHI), N-terminal His6-tag, E. coli BL21(DE3); model visible Met1 to Trp354; monomer in solution, dimer in crystal
Assay: X-ray crystal structure, […] Å
Type: binding
Details: non-covalent, active site; crystals from 100 mM HEPES pH 7.0, 1.1 M sodium malonate

T1 sequence (B8G5D6 whole entry): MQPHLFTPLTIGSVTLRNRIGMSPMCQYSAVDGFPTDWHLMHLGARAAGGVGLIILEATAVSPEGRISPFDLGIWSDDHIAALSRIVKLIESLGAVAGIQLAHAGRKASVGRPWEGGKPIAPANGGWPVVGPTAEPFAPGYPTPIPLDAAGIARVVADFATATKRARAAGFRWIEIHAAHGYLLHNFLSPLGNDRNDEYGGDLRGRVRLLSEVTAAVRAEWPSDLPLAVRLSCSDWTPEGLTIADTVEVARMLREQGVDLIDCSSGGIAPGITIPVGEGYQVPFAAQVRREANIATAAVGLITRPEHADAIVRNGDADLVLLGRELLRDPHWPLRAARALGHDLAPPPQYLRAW

For `Cc1cc2nc3c(=O)[nH]c(=O)nc-3n(C[C@H](O)[C@H](O)[C@H](O)COP(=O)(O)O)c2cc1C` [FMN], the “X-ray crystal structure, 2.40 Å” value was “The enzyme accommodates one molecule of FMN cofactor on the top of the β-barrel core”.
